Patent publication US20100062478A1, “DRUG FOR ANALYSIS OF WATER TRANSPORT FUNCTION OF MEMBRANE PROTEIN IN BIOLOGICAL TISSUE” (priority 2007, published 2010)

Tested on: aquaporin
Experiment: Immersion of round radish slices in red food coloring water (Reference Example 1)
Procedure: Using radish that was cut into round slices with thicknesses of 6-10 cm, the bottom faces of the round slices were immersed in red food coloring water for 1-16 hours, As the red food coloring, Red No. 102 (chemical name: 7-hydroxy-8-(4-sulfonaphthylazo)-1,3-naphthylenedisulfonic acid=trisodium salt=1½ hydrate) was used.

SMILES: O.O.O.O=S(=O)([O-])c1cc(S(=O)(=O)[O-])c2c(N=Nc3ccc(S(=O)(=O)[O-])c4ccccc34)c(O)ccc2c1.O=S(=O)([O-])c1cc(S(=O)(=O)[O-])c2c(N=Nc3ccc(S(=O)(=O)[O-])c4ccccc34)c(O)ccc2c1.[Na+].[Na+].[Na+].[Na+].[Na+].[Na+] [Red No. 102, 7-hydroxy-8-(4-sulfonaphthylazo)-1,3-naphthylenedisulfonic acid=trisodium salt=1½ hydrate]
- permeation of red food coloring into radish tissue (bottom face of round slices immersed, one hour elapsed): had soaked into the connective tissue at the periphery of the round slices from the bottom face
- permeation of red food coloring into radish tissue (round slices immersed for 16 hours): sites permeated by red food coloring water were not found anywhere other than the connective tissue
